Read-outs that look alike come from different tables or passages of the source.
Assays:
[1] = test system: MIXED COOLING TOWER ALGAE; test: MIC test against mixed cooling tower algae; format: cell-based, green algae and blue-green bacteria; conditions: Table VIII
Procedure: The algae culture contains green algae and blue-green bacteria, and is obtained from a cooling tower in Spring House, Pennsylvania. The algae culture is grown in Allen's medium on a rotary shaker under flourescent room lighting. This culture is further diluted with Allen's medium and then added to the test vessel.

[2] = test system: Phytophthora capsici (PHY); test: In-vitro plant fungicide test; format: cell-based; conditions: Phytophthora capsici; for inhibition of growth at 0.2 ppm: .2 ppm; for inhibition of growth at 0.4 ppm: .4 ppm; for inhibition of growth at 0.8 ppm: .8 ppm
Fusarium roseum (FUS) = test: In-vitro plant fungicide test; format: cell-based; conditions: Fusarium sambucinum; for inhibition of growth at 1.5 ppm: read-out: % Control at (ppm) indicated FUS, 1.5 ppm; for inhibition of growth at 3 ppm: read-out: % Control at (ppm) indicated FUS, 3 ppm; for inhibition of growth at 6 ppm: read-out: % Control at (ppm) indicated FUS, 6 ppm; for inhibition of growth at 12 ppm: read-out: % Control at (ppm) indicated FUS, 12 ppm; for inhibition of growth at 0.2 ppm: read-out: % Control at (ppm) indicated FUS, .2 ppm; for inhibition of growth at 0.4 ppm: read-out: % Control at (ppm) indicated FUS, .4 ppm; for inhibition of growth at 0.8 ppm: read-out: % Control at (ppm) indicated FUS, .8 ppm
[3] = test system: Aureobasidium pullulans (APUL); test: Minimum inhibitory concentration (MIC), broth two-fold serial dilution test; format: cell-based; conditions: Aureobasidium pullulans, IIIB, trypticase soy broth (complex media); Table IIIb; read-out: MIC (F) APUL
[4] = test system: Pseudomonas aerugenosa (PSAE); test: as above; conditions: Pseudomonas, IIIB, read-out: MIC (G-) PSAE, trypticase soy broth (complex media); Table IIIb
Piricularia oryzae (PIR) = test: microbe, parasite or virus in culture; format: cell-based; conditions: for inhibition of growth at 0.2 ppm: .2 ppm; for inhibition of growth at 0.4 ppm: .4 ppm; for inhibition of growth at 0.8 ppm: .8 ppm
[5] = test system: Staphylococcus aureus (SAUR); test: Minimum inhibitory concentration (MIC), broth two-fold serial dilution test; conditions: Staphylococcus aureus, IIIB, read-out: MIC (G+) SAUR, trypticase soy broth (complex media); Table IIIb
UST = test: In-vitro plant fungicide test; format: cell-based; conditions: Table IVb, read-out: % Control at (ppm) indicated UST; for inhibition of growth at 0.2 ppm: .2 ppm; for inhibition of growth at 0.4 ppm: .4 ppm; for inhibition of growth at 0.8 ppm: .8 ppm
Aspergillus niger (ANIG) = test: Minimum inhibitory concentration (MIC), broth two-fold serial dilution test; format: cell-based; conditions: Aspergillus niger, IIIB, trypticase soy broth (complex media); Table IIIb; read-out: MIC (F) ANIG
7 FUNGI = test: Microbicides broad spectrum secondary test against 7 fungi (Table V); format: cell-based; set-up: key: 1= no growth; 0= growth of the indicated fungi at dose indicated in ppm; conditions: Mycophile agar, pH 5.0; for ANIG growth: Aspergillus niger; for APUL growth: Aureobasidium pullulans; for CRES growth: Cladosporium resinae; for GTRA growth: Gloeophyllum trabeum; for PFUN growth: Penicillium funiculosum; for RRUB growth: Rhodotorula rubra; for SSER growth: Sacharomyces cerevisiae
Procedure: In the case of fungi, the spores are harvested by pipetting water onto the slant and dislodging the spores with a sterile loop. The cell/spore suspension is standardized by controlling incubation time, temperature, and the volume of the diluent. The suspension is then used to inoculate the vessels containing the broth compound. […] The results of the minimum inhibitory concentration (MIC) tests of compounds of this invention are shown in Tables IIIa IIIb, IIIc, V, VI, VII, and VIII against the microorganisms shown in Table IX. [table]

[6] = Table IVb, read-out: % Control at (ppm) indicated PHY
[7] = Table IVa, read-out: % Control at 25 ppm PHY
[8] = read-out: % Control at 25 ppm FUS, 25 ppm, Table IVa, *=Phytotoxic
[9] = read-out: % Control at (ppm) indicated FUS, 25 ppm, Table IVb
[10] = read-out: % Control at (ppm) indicated PIR
[11] = 25 ppm, read-out: % Control at (ppm) indicated PIR
[12] = read-out: % Control at 25 ppm PIR

CC(=O)NCC(=O)OCC#CI [Compound 28, N-acetylglycine iodopropargyl ester]
100%: inhibition of growth at 6 ppm [2, 6] | inhibition of growth at 25 ppm [2, 7] | inhibition of growth at 25 ppm [2, 6] | inhibition of growth at 25 ppm (Fusarium roseum (FUS); [8]) | inhibition of growth at 12 ppm (Fusarium roseum (FUS); Table IVb) | inhibition of growth at 25 ppm (Fusarium roseum (FUS); [9]) | inhibition of growth at 6 ppm (Piricularia oryzae (PIR); [10]) | inhibition of growth at 25 ppm (Piricularia oryzae (PIR); [11]) | inhibition of growth at 25 ppm (Piricularia oryzae (PIR); [12]) | inhibition of growth at 3 ppm (UST) | inhibition of growth at 6 ppm (UST) | inhibition of growth at 12 ppm (UST) | inhibition of growth at 25 ppm (UST)
4 µg/mL: MIC [3]
6.2 µg/mL: MIC [1]
63 µg/mL: MIC [4] | MIC [5]
50%: inhibition of growth at 1.5 ppm (UST)
0%: inhibition of growth at 1.5 ppm [2, 6] | inhibition of growth at 0.2 ppm [2, 6] | inhibition of growth at 0.4 ppm [2, 6] | inhibition of growth at 0.8 ppm [2, 6] | inhibition of growth at 1.5 ppm (Fusarium roseum (FUS); Table IVb) | inhibition of growth at 3 ppm (Fusarium roseum (FUS); Table IVb) | inhibition of growth at 6 ppm (Fusarium roseum (FUS); Table IVb) | inhibition of growth at 0.2 ppm (Fusarium roseum (FUS); Table IVb) | inhibition of growth at 0.4 ppm (Fusarium roseum (FUS); Table IVb) | inhibition of growth at 0.8 ppm (Fusarium roseum (FUS); Table IVb) | inhibition of growth at 1.5 ppm (Piricularia oryzae (PIR); [10]) | inhibition of growth at 0.2 ppm (Piricularia oryzae (PIR); [10]) | inhibition of growth at 0.4 ppm (Piricularia oryzae (PIR); [10]) | inhibition of growth at 0.8 ppm (Piricularia oryzae (PIR); [10]) | inhibition of growth at 0.2 ppm (UST) | inhibition of growth at 0.4 ppm (UST) | inhibition of growth at 0.8 ppm (UST)
2 µg/mL: MIC (Aspergillus niger (ANIG))

O=C(CNC(=O)c1ccccc1)OCC#CI [Compound 29, N-benzoylglycine iodopropargyl ester]
125 µg/mL: MIC [4]
100%: inhibition of growth at 25 ppm [2, 7] | inhibition of growth at 25 ppm (Fusarium roseum (FUS); [8]) | inhibition of growth at 25 ppm (Piricularia oryzae (PIR); [12])
1: ANIG growth (7 FUNGI; 5 PPM) | ANIG growth (7 FUNGI; 25 PPM) | APUL growth (7 FUNGI; 5 PPM) | APUL growth (7 FUNGI; 25 PPM) | CRES growth (7 FUNGI; 5 PPM) | CRES growth (7 FUNGI; 25 PPM) | GTRA growth (7 FUNGI; 0.2 PPM) | GTRA growth (7 FUNGI; 1 PPM) | GTRA growth (7 FUNGI; 5 PPM) | GTRA growth (7 FUNGI; 25 PPM) | PFUN growth (7 FUNGI; 5 PPM) | PFUN growth (7 FUNGI; 25 PPM) | RRUB growth (7 FUNGI; 5 PPM) | RRUB growth (7 FUNGI; 25 PPM) | SSER growth (7 FUNGI; 5 PPM) | SSER growth (7 FUNGI; 25 PPM)
0: ANIG growth (7 FUNGI; 0.2 PPM) | ANIG growth (7 FUNGI; 1 PPM) | APUL growth (7 FUNGI; 0.2 PPM) | APUL growth (7 FUNGI; 1 PPM) | CRES growth (7 FUNGI; 0.2 PPM) | CRES growth (7 FUNGI; 1 PPM) | PFUN growth (7 FUNGI; 0.2 PPM) | PFUN growth (7 FUNGI; 1 PPM) | RRUB growth (7 FUNGI; 0.2 PPM) | RRUB growth (7 FUNGI; 1 PPM) | SSER growth (7 FUNGI; 0.2 PPM) | SSER growth (7 FUNGI; 1 PPM)
0.5 µg/mL: MIC (Aspergillus niger (ANIG))
6.2 µg/mL: MIC [1]
32 µg/mL: MIC [5]

O=C(CN1C(=O)c2ccccc2C1=O)OCC#CI [Compound 30, N-phthaloylglycine iodopropargyl ester]
6.2 µg/mL: MIC [1]
> 250 µg/mL: MIC [4] | MIC [5]
100%: inhibition of growth at 1.5 ppm [2, 6] | inhibition of growth at 6 ppm [2, 6] | inhibition of growth at 25 ppm [2, 7] | inhibition of growth at 25 ppm [2, 6] | inhibition of growth at 25 ppm (Fusarium roseum (FUS); [8]) | inhibition of growth at 3 ppm (Fusarium roseum (FUS); Table IVb) | inhibition of growth at 6 ppm (Fusarium roseum (FUS); Table IVb) | inhibition of growth at 12 ppm (Fusarium roseum (FUS); Table IVb) | inhibition of growth at 25 ppm (Fusarium roseum (FUS); [9]) | inhibition of growth at 1.5 ppm (Piricularia oryzae (PIR); [10]) | inhibition of growth at 6 ppm (Piricularia oryzae (PIR); [10]) | inhibition of growth at 25 ppm (Piricularia oryzae (PIR); [11]) | inhibition of growth at 0.8 ppm (Piricularia oryzae (PIR); [10]) | inhibition of growth at 25 ppm (Piricularia oryzae (PIR); [12])
0%: inhibition of growth at 0.2 ppm [2, 6] | inhibition of growth at 0.4 ppm [2, 6] | inhibition of growth at 0.8 ppm [2, 6] | inhibition of growth at 1.5 ppm (Fusarium roseum (FUS); Table IVb) | inhibition of growth at 0.2 ppm (Fusarium roseum (FUS); Table IVb) | inhibition of growth at 0.4 ppm (Fusarium roseum (FUS); Table IVb) | inhibition of growth at 0.8 ppm (Fusarium roseum (FUS); Table IVb) | inhibition of growth at 0.2 ppm (Piricularia oryzae (PIR); [10]) | inhibition of growth at 0.4 ppm (Piricularia oryzae (PIR); [10]) | inhibition of growth at 1.5 ppm (UST) | inhibition of growth at 3 ppm (UST) | inhibition of growth at 6 ppm (UST) | inhibition of growth at 12 ppm (UST) | inhibition of growth at 25 ppm (UST) | inhibition of growth at 0.2 ppm (UST) | inhibition of growth at 0.4 ppm (UST) | inhibition of growth at 0.8 ppm (UST)
0.12 µg/mL: MIC (Aspergillus niger (ANIG))
